Data reported in US20240228633A9, “METHODS OF TREATING CANCER WITH PDGFR ALPHA INHIBITORS” (Eli Lilly and Company, priority 2021, published 2024).
Like-named read-outs stand apart in the source and are kept apart here.

Legend:
[1] = test system: soft tissue sarcoma; settings: clinical trials for treating soft tissue sarcoma; cited from earlier work
[2] = test system: LMS; test: Median overall survival in LMS patients by PDGFRβ tumor status; assay type: in vivo, human; settings: for OS HR: LMS female patients; for Hazard Ratio, overall survival / Hazard Ratio (95% CI), overall survival: Olaratumab + Doxorubicin vs Placebo + Doxorubicin; for OS HR adjusted for ECOG PS: adjusting for ECOG PS
[3] = test system: advanced or metastatic soft tissue sarcoma; settings: STS patients; for HR (95% CI), overall survival: Olaratumab + Doxorubicin vs Placebo + Doxorubicin
Description: Study Design: Patients with advanced or metastatic soft tissue sarcoma are treated with olaratumab (20 mg/kg loading dose on Days 1 and 8 of a 21-day cycle in Cycle 1, followed by 15 mg/kg on Days 1 and 8 in subsequent 21-day cycle) in combination with doxorubicin (75 mg/m^2 on Day 1) (“investigational cohort”) and compared to patients treated with placebo (on Days 1 and 8) plus doxorubicin (75 mg/m^2 on Day 1) (“control cohort”). Patients are treated for 8 cycles, followed by olaratumab monotherapy or placebo until evidence of progressive disease, unacceptable toxicity or death. […] Patients are assessed for median overall survival (OS).
Immunohistochemistry Assay to determine PDGFR/3 expression: For immunohistochemistry analysis, tumor tissue from patients is collected, formalin-fixed in 10% neutral buffered formalin, and paraffin-embedded (FFPE). PDGFRβ protein expression on tumor cells is assessed by immunohistochemistry. Briefly, from FFPE tissue blocks containing the patient tumor tissue, a 4-6 micrometer section is obtained and placed on a positively charged glass slide. Anti-PDGFRβ mouse monoclonal antibody 2B3 is used to detect expression of PDGFRβ (clone 2B3, Cell Signaling Technology® catalog number 3175S), diluted in Dako Primary Antibody Diluent with Background Reducing Components (Dako/Agilent catalog number S3022) at 0.25 μm/mL. Immunohistochemistry is performed on a Dako Autostainer Link 48/PT Link Incubator. Deparaffinization with the Link 48/PT Link Incubator is accomplished at 97° C. for 20 minutes. Target retrieval is next accomplished with immersion of the unstained slides into EnVision™ FLEX Target Retrieval Solution High pH (Dako) on the Dako Link48/PT Link Incubator. Following a rinse in RT EnVision™ FLEX Wash Buffer (1×), specific immunohistochemical staining with the 2B3 antibody is accomplished by FLEX Peroxidase Block for 5 minutes, application of the 0.25 ug/mL concentration of anti-human PDGFRβ antibody 2B3 with incubation for 60 minutes, followed by FLEX/HRP application and incubation for 20 minutes, then application of FLEX DAB+ Substrate Chromogen for 10 minutes, and finally FLEX hematoxylin for 5 minutes. Ready-to-use FLEX Mouse Negative Control (Dako/Agilent catalog number IR750) is performed alongside PDGFRβ staining and used as a quality control (negative control) for the assay. Stained slides are then evaluated by trained personnel using a brightfield microscope.

[4] = LMS patients excluding PDGFRβ positive females
[5] = LMS patients, PDGFRβ negative tumor status
[6] = LMS patients, PDGFRβ positive tumor status
[7] = PDGFRβ negative and PDGFRα positive tumor status

Substance: LARTRUVO®: an antibody that specifically binds human PDGFRα
- therapeutic endpoints in clinical trials [1]: failed to meet certain therapeutic endpoints

Substance: Olaratumab + Doxorubicin: olaratumab (antibody that binds human PDGFRα) in combination with doxorubicin, followed by olaratumab monotherapy
- OS HR ([2]; PDGFRβ negative tumor status): 0.55
- OS HR ([2]; PDGFRβ positive tumor status): 1.34
- Median OS months [2, 4]: 28.5 months
- Hazard Ratio, overall survival [2, 4]: 0.60; p = 0.035
- Hazard Ratio, overall survival ([2]; LMS patients excluding PDGFRβ positive females, listed as investigational cohort): 0.60
- Median OS months [2, 5]: 29.11 months
- Hazard Ratio (95% CI), overall survival ([2]; LMS patients, PDGFRβ negative): 0.65 (0.33, 1.25)
- Hazard Ratio (95% CI), overall survival ([2]; LMS patients, PDGFRβ negative, listed as investigational cohort): 0.65
- Median OS months [2, 6]: 20.14 months
- Hazard Ratio (95% CI), overall survival ([2]; LMS patients, PDGFRβ positive): 1.05 ((0.71, 1.55)
- Hazard Ratio (95% CI), overall survival ([2]; LMS patients, PDGFRβ positive, listed as investigational cohort): 1.05
- OS HR adjusted for ECOG PS ([2]; PDGFRβ negative women with LMS): 0.55
- OS HR adjusted for ECOG PS ([2]; PDGFRβ positive women with LMS): 1.34
- median OS ([3]; PDGFRα negative tumor status): 23.6 months
- median OS ([3]; PDGFRα positive tumor status): 17.2 months
- median OS [3, 7]: 28.5 months
- Median OS months ([3]; PDGFRβ negative tumor status): 28.32 months
- HR (95% CI), overall survival ([3]; PDGFRβ negative): 0.85 (0.54-1.33)
- HR (95% CI), overall survival ([3]; PDGFRβ negative, listed as investigational cohort): 0.85
- Median OS months ([3]; PDGFRβ positive tumor status): 18.79 months
- Median OS months ([3]; PDGFRβ positive tumor status, listed as investigational cohort): 18.8 months
- HR (95% CI), overall survival ([3]; PDGFRβ positive): 1.10 (0.84-1.44)

Substance: doxorubicin [Placebo + Doxorubicin, reference compound]
- Median OS months [2, 4]: 20.9 months
- Median OS months [2, 5]: 21.88 (16.72, 35.55) months
- Median OS months ([2]; LMS patients, PDGFRβ negative tumor status, listed as control cohort): 21.88 months
- Median OS months [2, 6]: 21.39 (15.57, 24.57) months
- Median OS months ([2]; LMS patients, PDGFRβ positive tumor status, listed as control cohort): 21.39 months
- median OS ([3]; PDGFRα negative tumor status): 21.9 months
- median OS ([3]; PDGFRα positive tumor status): 19.1 months
- median OS [3, 7]: 20.6 months
- Median OS months ([3]; PDGFRβ negative tumor status): 20.57 months
- Median OS months ([3]; PDGFRβ positive tumor status): 19.88 months
- Median OS months ([3]; PDGFRβ positive tumor status, listed as control cohort): 19.9 months
